According to PubChem BioAssay (NCI):
Several values for one entry are separate records, joined by “and”; a condition that tells them apart may be missing. Identical values can stand only once.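 Interpolation was linear, between the two tested concentrations surrounding the appropriate level; five concentrations were tested over 48 hours in 96-well plates. The concentration for 50% growth inhibition is given as GI50. TGI: total growth inhibition.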

How the values were obtained:
Test in all cases: NCI-60 cell line screen, 48 h
MOLT-4 leukemia = tested on: MOLT-4 leukemia
SR leukemia = tested on: SR leukemia
HL-60(TB) leukemia = tested on: HL-60(TB) leukemia
SK-MEL-28 melanoma = tested on: SK-MEL-28 melanoma
M14 melanoma = tested on: M14 melanoma
NCI-H226 lung = tested on: NCI-H226 lung
HCC-2998 colon = tested on: HCC-2998 colon
OVCAR-8 ovarian = tested on: OVCAR-8 ovarian
NCI-H522 lung = tested on: NCI-H522 lung
MCF7 breast = tested on: MCF7 breast

## COc1ccc2c(c1)c[n+](C)c1c3cc(OC)c(OC)cc3ccc21
MOLT-4 leukemia
  GI50: 0.358 µM and 1.7 µM
  TGI: 3.81 µM and 17.9 µM
SR leukemia
  TGI: 13.2 µM
HL-60(TB) leukemia
  GI50: 0.467 µM and 1.85 µM
  TGI: 3.48 µM and 16.9 µM
SK-MEL-28 melanoma
  GI50: 1.7 µM and 13 µM
  TGI: 3.45 µM and 27.3 µM
M14 melanoma
  GI50: 1.41 µM and 4.48 µM
  TGI: 3.05 µM and 14.3 µM
NCI-H226 lung
  GI50: 4.22 µM and 12.1 µM
  TGI: 14.8 µM and 25.9 µM
HCC-2998 colon
  GI50: 1.86 µM and 7.34 µM
  TGI: 3.71 µM and 19.9 µM
OVCAR-8 ovarian
  TGI: 4.61 µM and 6.34 µM
NCI-H522 lung
  TGI: 2.33 µM and 4.34 µM

## O=C(O)c1ccc(C(=O)O)c2c(C(=O)O)ccc(C(=O)O)c12
MOLT-4 leukemia
  TGI: > 100 µM
SR leukemia
  TGI: > 100 µM
SK-MEL-28 melanoma
  TGI: > 100 µM
M14 melanoma
  TGI: > 100 µM
NCI-H226 lung
  TGI: > 100 µM
OVCAR-8 ovarian
  TGI: > 100 µM
MCF7 breast
  TGI: > 100 µM
NCI-H522 lung
  TGI: > 100 µM

## CC(C)=CCc1cc(O)cc2c1OC(C=C(C)C)C1=C2C(=O)C2=C(C1=O)S(=O)(=O)CCN2 (configuration not stated)
MOLT-4 leukemia
  GI50: 3.4 µM
  TGI: 8.99 µM
SK-MEL-28 melanoma
  GI50: 3.12 µM
  TGI: 6.04 µM
M14 melanoma
  GI50: 2.92 µM
  TGI: 5.59 µM
NCI-H226 lung
  GI50: 4.75 µM
  TGI: > 16.7 µM
HCC-2998 colon
  GI50: 5.53 µM
  TGI: > 16.7 µM
OVCAR-8 ovarian
  GI50: 3.09 µM
  TGI: 6.72 µM
MCF7 breast
  GI50: 2.79 µM
  TGI: 6.97 µM
NCI-H522 lung
  GI50: 2.94 µM
  TGI: 7.03 µM

## C/C(=N\NC(=S)N1CCCCCC1)c1ccccn1
MOLT-4 leukemia
  TGI: 3.46 µM and > 31.9 µM
HL-60(TB) leukemia
  TGI: 0.185 µM
SK-MEL-28 melanoma
  TGI: 0.295 µM
M14 melanoma
  GI50: 0.0103 µM
  TGI: 1.56 µM and 0.74 µM
NCI-H226 lung
  GI50: 0.245 µM
  TGI: 3.62 µM and 5.35 µM
HCC-2998 colon
  GI50: 0.0374 µM
  TGI: 2.03 µM and 1.35 µM
OVCAR-8 ovarian
  TGI: 3.48 µM and 4.57 µM
MCF7 breast
  TGI: 0.0245 µM
NCI-H522 lung
  GI50: 0.109 µM
  TGI: 0.623 µM and 1.39 µM

## COC(=O)c1cc2c(s1)-c1nccc3c1c(nc1ccccc13)C2=O
MOLT-4 leukemia
  GI50: > 100 µM
  TGI: > 100 µM
HL-60(TB) leukemia
  GI50: 12.3 µM
  TGI: > 100 µM
SK-MEL-28 melanoma
  GI50: > 100 µM
  TGI: > 100 µM
M14 melanoma
  GI50: 97.7 µM
  TGI: > 100 µM
NCI-H226 lung
  GI50: > 100 µM
  TGI: > 100 µM
OVCAR-8 ovarian
  GI50: 19.1 µM
  TGI: 48.4 µM
MCF7 breast
  GI50: 26.1 µM
  TGI: > 100 µM
NCI-H522 lung
  GI50: 35 µM
  TGI: > 100 µM

## O=C(Nc1cc(C(F)(F)F)ccc1Cl)c1cccc(NC2=C(Cl)C(=O)N(Cc3ccccc3)C2=O)c1
MOLT-4 leukemia
  GI50: 2.19 µM
  TGI: > 100 µM
SR leukemia
  GI50: 1.26 µM
  TGI: 3.16 µM
HL-60(TB) leukemia
  GI50: 3.52 µM
  TGI: 9.23 µM
SK-MEL-28 melanoma
  GI50: > 100 µM
  TGI: > 100 µM
M14 melanoma
  GI50: 82.6 µM
  TGI: > 100 µM
NCI-H226 lung
  GI50: 17.6 µM
  TGI: > 100 µM
OVCAR-8 ovarian
  GI50: 47.6 µM
  TGI: > 100 µM
MCF7 breast
  GI50: 5.76 µM
  TGI: 85.6 µM
NCI-H522 lung
  GI50: 6.8 µM
  TGI: 45.3 µM

## CC(=O)N1CCC(=O)/C(=C/c2ccccc2)C1
MOLT-4 leukemia
  TGI: > 100 µM
SR leukemia
  TGI: 72.5 µM
SK-MEL-28 melanoma
  TGI: 38.3 µM
M14 melanoma
  TGI: > 100 µM
NCI-H226 lung
  TGI: > 100 µM
HCC-2998 colon
  TGI: > 100 µM
OVCAR-8 ovarian
  TGI: 99.3 µM

## C=CCN1CCC23c4c5ccc(O)c4OC2C(=NN=C2CCC4(O)C6Cc7ccc(O)c8c7C4(CCN6CC=C)C2O8)CCC3(O)C1C5 (configuration not stated)
MOLT-4 leukemia
  TGI: > 100 µM
SK-MEL-28 melanoma
  TGI: 35.3 µM
M14 melanoma
  TGI: 32 µM
NCI-H226 lung
  TGI: > 100 µM
HCC-2998 colon
  TGI: 43.2 µM
OVCAR-8 ovarian
  TGI: 61.7 µM
NCI-H522 lung
  TGI: 72.1 µM

## COC(=O)c1ccc(-c2c(C#N)[n+](=O)c3cc(Cl)c(Cl)cc3n2[O-])cc1
MOLT-4 leukemia
  GI50: 1.18 µM
  TGI: 2.96 µM
SK-MEL-28 melanoma
  GI50: 17.2 µM
  TGI: 34.8 µM
M14 melanoma
  GI50: 16.2 µM
  TGI: 34.1 µM
NCI-H226 lung
  GI50: 25.7 µM
  TGI: 70.6 µM
HCC-2998 colon
  GI50: 16.9 µM
  TGI: 37.7 µM
OVCAR-8 ovarian
  GI50: 24.3 µM
  TGI: 55.6 µM
MCF7 breast
  GI50: 19.2 µM
  TGI: 42.1 µM
NCI-H522 lung
  GI50: 4.12 µM
  TGI: > 100 µM

## CC12CCC3c4ccc(O)cc4CCC3C1C/C(=N\O)C2O (configuration not stated)
MOLT-4 leukemia
  TGI: > 100 µM
SR leukemia
  TGI: > 100 µM
HL-60(TB) leukemia
  TGI: > 100 µM
SK-MEL-28 melanoma
  TGI: > 100 µM
M14 melanoma
  TGI: > 100 µM
NCI-H226 lung
  TGI: > 100 µM
OVCAR-8 ovarian
  TGI: > 100 µM
MCF7 breast
  TGI: > 100 µM
NCI-H522 lung
  TGI: > 100 µM

## CC(C)=CCc1cc2c(cc1O)OC[C@H]1c3cc4c(cc3O[C@@H]21)OCO4
MOLT-4 leukemia
  TGI: 57.4 µM
SR leukemia
  TGI: > 100 µM
HL-60(TB) leukemia
  TGI: 71.9 µM
SK-MEL-28 melanoma
  TGI: > 100 µM
M14 melanoma
  TGI: > 100 µM
NCI-H226 lung
  TGI: 69.7 µM
OVCAR-8 ovarian
  TGI: > 100 µM
MCF7 breast
  TGI: 58.7 µM
NCI-H522 lung
  TGI: > 100 µM

## CN(C)CCNC(=O)c1cccc2c(Nc3ccc(S(=O)(=O)N=C(N)N)cc3)c3ccccc3nc12
MOLT-4 leukemia
  TGI: 6.83 µM
SR leukemia
  TGI: > 100 µM
HL-60(TB) leukemia
  TGI: 2.59 µM
SK-MEL-28 melanoma
  TGI: 71.2 µM
M14 melanoma
  TGI: > 100 µM
NCI-H226 lung
  TGI: 10.1 µM
OVCAR-8 ovarian
  TGI: 69.1 µM
NCI-H522 lung
  TGI: 17.3 µM

## CCc1c(Cl)c(C)cc(O)c1Cl
MOLT-4 leukemia
  TGI: 95.2 µM
HL-60(TB) leukemia
  TGI: 40.8 µM
SK-MEL-28 melanoma
  TGI: > 100 µM
M14 melanoma
  TGI: 92.5 µM
NCI-H226 lung
  TGI: 63.2 µM
HCC-2998 colon
  TGI: 26.7 µM
OVCAR-8 ovarian
  TGI: > 100 µM
MCF7 breast
  TGI: > 100 µM
NCI-H522 lung
  TGI: > 100 µM

## Cc1nc2cc(Nc3nc(Nc4ccc(F)cc4)nc(-c4cccs4)n3)ccc2n1Cc1ccccc1
MOLT-4 leukemia
  GI50: 2.97 µM
  TGI: 9.3 µM
SR leukemia
  GI50: 2.56 µM
  TGI: 7.44 µM
HL-60(TB) leukemia
  GI50: 2.46 µM
  TGI: 6.5 µM
SK-MEL-28 melanoma
  GI50: 9.47 µM
  TGI: > 100 µM
M14 melanoma
  GI50: 5.42 µM
  TGI: 24.6 µM
NCI-H226 lung
  GI50: 8.23 µM
  TGI: 36.5 µM
OVCAR-8 ovarian
  GI50: 3.54 µM
  TGI: 19 µM
MCF7 breast
  GI50: 2.15 µM
  TGI: 7.91 µM
NCI-H522 lung
  GI50: 2.66 µM
  TGI: 9.16 µM

## Cc1cc2cc3c(=O)[nH]c(=O)[nH]c3nc2cc1C
MOLT-4 leukemia
  TGI: > 100 µM
SR leukemia
  TGI: > 100 µM
HL-60(TB) leukemia
  TGI: > 100 µM
SK-MEL-28 melanoma
  TGI: > 100 µM
M14 melanoma
  TGI: > 100 µM
NCI-H226 lung
  TGI: > 100 µM
OVCAR-8 ovarian
  TGI: > 100 µM
MCF7 breast
  TGI: > 100 µM
NCI-H522 lung
  TGI: > 100 µM

## COc1ccc(Cn2c(N)c(S(=O)(=O)c3ccc(Cl)cc3)c3nc(C#N)c(C#N)nc32)cc1
SR leukemia
  GI50: 29.9 µM
  TGI: > 50 µM
HL-60(TB) leukemia
  GI50: > 50 µM
  TGI: > 50 µM
SK-MEL-28 melanoma
  GI50: > 50 µM
  TGI: > 50 µM
M14 melanoma
  GI50: 24.8 µM
  TGI: > 50 µM
OVCAR-8 ovarian
  GI50: 7.55 µM
  TGI: > 50 µM
MCF7 breast
  GI50: 5.85 µM
  TGI: > 50 µM
NCI-H522 lung
  GI50: 5.82 µM
  TGI: > 50 µM

## COc1cc(/C=C\c2cc(OC)c(OC)c(OC)c2)cc(N/C=C\C(=O)c2cc(OC)c(OC)c(OC)c2)c1OC
MOLT-4 leukemia
  GI50: 4.62 µM
  TGI: > 100 µM
SR leukemia
  GI50: 2.03 µM
  TGI: > 100 µM
HL-60(TB) leukemia
  GI50: 3.24 µM
  TGI: 42.2 µM
SK-MEL-28 melanoma
  GI50: 4.28 µM
  TGI: > 100 µM
NCI-H226 lung
  GI50: 5.46 µM
  TGI: > 100 µM
HCC-2998 colon
  GI50: 8.92 µM
  TGI: > 100 µM
OVCAR-8 ovarian
  GI50: 4.7 µM
  TGI: > 100 µM
MCF7 breast
  GI50: 2.34 µM
  TGI: > 100 µM

## COC(=O)c1s/c(=N\C(=S)N(C)C)n(-c2ccc(Cl)cc2)c1C(=O)OC
MOLT-4 leukemia
  TGI: > 100 µM
SR leukemia
  TGI: > 100 µM
HL-60(TB) leukemia
  TGI: > 100 µM
SK-MEL-28 melanoma
  TGI: > 100 µM
M14 melanoma
  TGI: > 100 µM
NCI-H226 lung
  TGI: > 100 µM
HCC-2998 colon
  TGI: > 100 µM
OVCAR-8 ovarian
  TGI: > 100 µM
NCI-H522 lung
  TGI: > 100 µM
